The record followed here is ChEMBL document CHEMBL2331339.

Each structure is given as a SMILES string. Active and inactive are the calls of the source. The rule behind the calls is not given here.

For assay [1], the system named is Staphylococcus aureus. In words: Antimicrobial activity against Staphylococcus aureus at 1024 ug/ml by broth microdilution method. It is filed as functional, organism-based. For orientation: In broth dilution the organism is exposed to a series of concentrations in liquid medium.
The target in assay [2] is T1, Alpha-hemolysin (Staphylococcus aureus) (UniProt P09616).
T1 sequence (whole entry): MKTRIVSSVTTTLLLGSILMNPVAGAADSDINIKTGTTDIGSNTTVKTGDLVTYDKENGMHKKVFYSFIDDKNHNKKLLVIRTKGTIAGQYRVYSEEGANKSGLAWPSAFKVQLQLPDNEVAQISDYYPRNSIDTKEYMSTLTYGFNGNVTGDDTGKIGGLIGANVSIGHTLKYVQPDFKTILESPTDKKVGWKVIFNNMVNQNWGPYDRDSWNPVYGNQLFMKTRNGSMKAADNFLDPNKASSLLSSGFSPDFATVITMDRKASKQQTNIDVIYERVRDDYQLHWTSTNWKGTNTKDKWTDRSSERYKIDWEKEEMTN
In words: Binding affinity to wild type Staphylococcus aureus alpha-hemolysin by fluorescence quenching method.

Assay [3] relates to Staphylococcus aureus. In words: Inhibition of alpha-hemolysin protein expression in Staphylococcus aureus 8325-4 at 4 to 256 ug/ml by Western blot analysis. It is filed as functional, organism-based. (In general: A western blot detects proteins with antibodies after separation by electrophoresis.)
The target of assay [4] is T1, Alpha-hemolysin (Staphylococcus aureus). Kind of assay: Inhibition of deoxycholate-induced wild type Staphylococcus aureus alpha-hemolysin oligomerization at 16 ug/ml by SDS-PAGE analysis.

With `Cc1c(O)c(C)c2c(c1O)C(=O)CC(c1ccc(O)c(O)c1)O2` (centres undefined), in the assay with Staphylococcus aureus [1], the outcome was inactive. For the same compound, the result in assay [2] was Active. The inhibition result in the assay with Staphylococcus aureus [3] was “inactive”. Also, in assay [4], the inhibition result was “Active”.
